Experiment in all cases: NCI anticancer screen, dose series, 48 h
Test [1] has as its system A549.
Test [2] relates to EKVX.
Test [3] relates to HCT-15.
The subject of test [4] is HOP-92.
In test [5] the test system is HT-29.
The test system of test [6] is MDA-MB-231.
Test [7] concerns MDA-N.
For test [8], the system named is NCI-H226.
The test system of test [9] is NCI/ADR-RES.
Test [10] relates to OVCAR-5.
For test [11], the system named is OVCAR-8.
In test [12] the test system is RXF 393.
The subject of test [13] is SF-295.
Test [14] relates to SK-MEL-2.
Test [15] has as its system SN12C.
Test [16] concerns SW-620.
Test [17] concerns U-251.
Test [18] deals with UO-31.
Test [19] deals with SF-539.

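1) Cells in 96-well plates. 2) Compound, 48 h, 5 concentrations. 3) Linear interpolation between surrounding doses. 4) Unreached endpoint = highest concentration. GI50 = concentration required for 50% inhibition of growth.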 The source made the active and inactive calls. Cut-off read from the data, not from the text of the source: active = GI50 up to about 1.1 µM and inactive = higher.

On to `O=C(O)CNC(=O)c1ccc([As](=O)(O)O)cc1`, for which the GI50 was > 100 µM (inactive) in test [1]; > 100 µM (inactive) in test [2]; more than 100 µM in [3]; > 100 µM (inactive) in [4]; > 100 µM (inactive) in [5]; > 100 µM (inactive) in [6]. Further, the GI50 in [7], in test [8], in [9], in [10], in [11] and in test [12] was > 100 µM (inactive) throughout. Besides, the GI50 in test [13], in test [14], in test [15], in [16], in [17] and in [18] was > 100 µM (inactive) each time.
`COc1ccc(/C=C/c2nccc3ccccc23)cc1OC`: the GI50 in test [1] was > 10 µM (inactive); in test [2], > 10 µM (inactive); in [3] it was more than 10 µM; in test [4], 6.17 µM (inactive); in test [5] it was 4.05 µM (inactive); in test [6], 2.77 µM (inactive). Moreover, the GI50 in [7] is > 10 µM (inactive); in test [8], > 10 µM (inactive); in test [9], 9.38 µM (inactive); in [10] it was > 10 µM (inactive); in [11], > 10 µM (inactive); in test [12] it was > 10 µM (inactive). Further, the GI50 is > 10 µM (inactive) in [13]; > 10 µM (inactive) in test [19]; > 10 µM (inactive) in [14]; 9.48 µM (inactive) in test [15]; > 10 µM (inactive) in test [16]; > 10 µM (inactive) in [17].
Take `CC(C)(C)OC(=O)[C@@H]1CCC(=S)N1Cc1ccccc1`: the GI50 in [1] was > 100 µM (inactive); in test [2], 92 µM (inactive); in [3], more than 100 µM; in test [4], > 100 µM (inactive); in test [6] it was > 100 µM (inactive); in test [7], > 100 µM (inactive). Moreover, the GI50 in test [8] was 60.1 µM (inactive); in test [9], > 100 µM (inactive); in [10] it was > 100 µM (inactive); in test [11], > 100 µM (inactive); in [12], > 100 µM (inactive); in test [13] it was > 100 µM (inactive). The GI50 in test [19] was > 100 µM (inactive); in test [14] it was > 100 µM (inactive); in test [15] it was > 100 µM (inactive); in test [16], > 100 µM (inactive); in test [17], > 100 µM (inactive); in test [18], 78.2 µM (inactive).
On to `Cc1ccc(C(=O)/C=C2\Nc3ccccc3NC2=O)cc1`, for which the GI50 was 4.94 µM (inactive) in test [1]; 2.96 µM (inactive) in test [2]; 56.6 µM in [3]; 3.28 µM (inactive) in [4]; 20 µM (inactive) in [5]; 2.78 µM (inactive) in [6]. In addition, the GI50 is 32.6 µM (inactive) in [7]; 1.65 µM (inactive) in test [8]; 5.13 µM (inactive) in test [9]; 29.4 µM (inactive) in [10]; 3.08 µM (inactive) in [11]; 2.42 µM (inactive) in test [12]. Further, the GI50 in test [13] was 4.17 µM (inactive); in test [19], 4.78 µM (inactive); in test [14], 4.11 µM (inactive); in test [15] it was 5.58 µM (inactive); in test [17], 8.13 µM (inactive); in [18], 4.38 µM (inactive).
Regarding `O=C(C1OC1c1ccc(Br)cc1O)C12CC3CC(CC(C3)C1)C2` (configuration not stated), the GI50 was 37.8 µM (inactive) in [1]; > 100 µM (inactive) in [2]; 19.4 µM in test [3]; 17.7 µM (inactive) in test [4]; 28.8 µM (inactive) in test [5]; 18.1 µM (inactive) in test [6]. In addition, the GI50 in test [7] is 17 µM (inactive); in [8], 28.5 µM (inactive); in [9], 30 µM (inactive); in test [10], 41.5 µM (inactive); in test [11] it was 20.5 µM (inactive); in test [12] it was 21.7 µM (inactive). In addition, the GI50 was 17.9 µM (inactive) in test [13]; 95.1 µM (inactive) in test [19]; 15.6 µM (inactive) in test [15]; 18.7 µM (inactive) in test [16]; 15.7 µM (inactive) in test [17]; 13.2 µM (inactive) in test [18].
Consider `COC(=O)CCCc1ccc2c(c1)CC1(Cc3ccccc3C1)C2`, for which the GI50 in [1] was 58.9 µM (inactive); in [2], > 100 µM (inactive); in [3], 6.28 µM; in test [4], > 100 µM (inactive); in [5], 31 µM (inactive); in test [6], > 100 µM (inactive). In addition, the GI50 in test [7] is 23.2 µM (inactive); in test [8], > 100 µM (inactive); in test [9], 80 µM (inactive); in test [10] it was > 100 µM (inactive); in [11], 70.1 µM (inactive); in test [12] it was 77.1 µM (inactive). Also, the GI50 is > 100 µM (inactive) in test [13]; > 100 µM (inactive) in test [19]; 19.5 µM (inactive) in [14]; 88.5 µM (inactive) in test [15]; > 100 µM (inactive) in [17]; 86.1 µM (inactive) in test [18].
Take `CC(C)(C)OC(=O)NC1CC=CCC1NC(=O)OC(C)(C)C` (configuration not stated): the GI50 in [1] is > 100 µM (inactive); in [3] it was more than 100 µM; in test [4], > 100 µM (inactive); in test [5], > 100 µM (inactive); in test [6], > 100 µM (inactive); in test [7], > 100 µM (inactive). For the same molecule, the GI50 was > 100 µM (inactive) in test [8]; > 100 µM (inactive) in [9]; > 100 µM (inactive) in test [10]; > 100 µM (inactive) in test [11]; 95.5 µM (inactive) in test [12]; > 100 µM (inactive) in test [13]. Moreover, the GI50 in test [19], in [14], in test [15], in [16], in [17] and in test [18] was > 100 µM (inactive) each time.
Consider `CSc1nc2c(c(N(C)C)n1)C=Nn1c(nc3ccccc31)S2`, for which the GI50 in test [1] is 69 µM (inactive); in [3], more than 100 µM; in [4] it was 25.7 µM (inactive); in test [5], > 100 µM (inactive); in test [6] it was 78.2 µM (inactive); in [7], 95.1 µM (inactive). The GI50 in test [8] was > 100 µM (inactive); in test [9], > 100 µM (inactive); in [10] it was > 100 µM (inactive); in test [11], 74.3 µM (inactive); in [12], 29 µM (inactive); in [13], > 100 µM (inactive). Also, the GI50 in test [14] is > 100 µM (inactive); in [15], > 100 µM (inactive); in [16] it was > 100 µM (inactive); in [17], > 100 µM (inactive); in [18], 51.1 µM (inactive).
With `C#CCNCC(=O)O`, the GI50 in test [1] was > 100 µM (inactive); in test [2] it was > 100 µM (inactive); in [3], more than 100 µM; in [4], > 100 µM (inactive); in [5], > 100 µM (inactive); in test [6], > 100 µM (inactive). Further, the GI50 in [7], in test [8], in [9], in test [10], in test [11] and in test [12] was > 100 µM (inactive) in each case. For the same molecule, the GI50 in test [13], in [19], in test [14], in test [16], in test [17] and in test [18] was > 100 µM (inactive) each time.
For the molecule `Cc1nc2ccccc2c(=O)n1NC(=O)c1ccc(CS)cc1`, the GI50 was 7.48 µM (inactive) in test [1]; 4.76 µM (inactive) in [2]; 16.4 µM in test [3]; 7.85 µM (inactive) in test [4]; 10.8 µM (inactive) in test [5]; 13 µM (inactive) in [6]. For the same molecule, the GI50 in test [7] was > 10 µM (inactive); in test [8], 2.84 µM (inactive); in test [9], 28.6 µM (inactive); in test [10], 34.5 µM (inactive); in test [11], 20.8 µM (inactive); in [12], > 10 µM (inactive). Besides, the GI50 was 25.8 µM (inactive) in test [13]; 12.9 µM (inactive) in test [19]; 11.9 µM (inactive) in [15]; 6 µM (inactive) in test [16]; 3.94 µM (inactive) in test [17]; 12.5 µM (inactive) in test [18].
On to `Cc1cc(N2CCCC2)c([N+](=O)[O-])cc1[N+](=O)[O-]`, for which the GI50 was > 100 µM (inactive) in test [1]; > 100 µM (inactive) in test [2]; more than 100 µM in test [3]; > 100 µM (inactive) in [4]; > 100 µM (inactive) in test [5]; > 100 µM (inactive) in test [6]. The GI50 in test [7] was > 100 µM (inactive); in [8], > 100 µM (inactive); in [9] it was > 100 µM (inactive); in [11], > 100 µM (inactive); in test [12], 80.9 µM (inactive); in [13], > 100 µM (inactive). The GI50 in test [19], in test [14], in test [15], in [16], in test [17] and in test [18] was > 100 µM (inactive) in each case.

The values are drawn from ChEMBL document CHEMBL1201862, “PubChem BioAssay data set” (2004).
